Measurements as given in patent US20130158063A1, “Compounds, Compositions and Methods Related to PPAR Antagonists” (GEORGETOWN UNIVERSITY, priority 2010, published 2013).

Columns and labels:
PPARα [1] = molecular target: T1, PPARα (Homo sapiens, UniProt Q07869); assay: Fluorescent Polarization (FP) binding assay with corepressor peptides, PPARα; details: Nb = no binding
T1 construct: purchased Cayman Chemicals
T1 sequence (Q07869 239-466 limits assumed): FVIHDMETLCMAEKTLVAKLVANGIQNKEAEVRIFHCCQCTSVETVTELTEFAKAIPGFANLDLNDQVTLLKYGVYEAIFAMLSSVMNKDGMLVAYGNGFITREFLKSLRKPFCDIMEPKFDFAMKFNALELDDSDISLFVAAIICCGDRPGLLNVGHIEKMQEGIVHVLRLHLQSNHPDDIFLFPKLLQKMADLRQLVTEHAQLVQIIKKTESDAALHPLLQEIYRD
Experimental: (§1) For PPARγ screening, a fluorescent ligand supplied by Cayman Chemicals was also used. All compounds were dissolved in DMSO as 10 mM stock solutions and the final DMSO content in the assay was <1%. A TECAN Ultra 485 multi-functional microplate reader and GraphPad prism 4 software were used for measurements and analysis, respectively.
(§2) PPAR antagonists are expected to enhance the affinities of the corepressor peptides, and therefore, FP should increase as the compound concentration increases. Agonists would be expected to weaken the affinity of the same co-repressor peptide. Although this effect occurs for PPARγ, the dissociation of corepressor peptides varies for PPARα and PPARδ due to altered presentations of the overlapping coactivator/corepressor binding surfaces (Stanley T. B. et al. Biochemistry 42:9278-87, 2003). Compounds were screened initially against PPARγ and PPARδ at 1 and 100 μM. If binding was observed, titration experiments from 10 nM to 100 μM were carried out in triplicate with all three PPARs. […] For screening, either enhancement or weakening of FP was considered active.
(§3) Virtual screening for PPARγ was conducted against 56,000 compounds from the Maybridge library that targeted the ligand binding domain (LBD) of PPARγ, and 10 conformations of each compound were docked to the LBD using Autdock4 software (Scripps Institute). Sixty of the top ranked compounds were ordered from Maybridge, and 58 were available for evaluation. Fluorescent Polarization (FP) assays were established with the tagged co-repressor peptides NCoR1 and SMRT, the recombinant PPARα and PPARγ ligand-binding domains and full-length PPARδ. […] Sd-107 and its analogs are disclosed herein. The chemical structure is shown below.

PPARγ [2] = molecular target: T2, PPARγ (Homo sapiens, UniProt P37231); assay: Fluorescent Polarization (FP) binding assay with corepressor peptides, PPARγ; details: for EC50 / Binding assay EC50, γ: FP assay, Nb = no binding; for EC50: read-out: Binding assay EC50, γ; for Competition in FPA of PPARγ with fluorescent labeled NCoR peptide probe: FIG. 17, YL-1-80 analogs
T2 construct: purchased Cayman Chemicals
T2 sequence (P37231 238-503 limits assumed): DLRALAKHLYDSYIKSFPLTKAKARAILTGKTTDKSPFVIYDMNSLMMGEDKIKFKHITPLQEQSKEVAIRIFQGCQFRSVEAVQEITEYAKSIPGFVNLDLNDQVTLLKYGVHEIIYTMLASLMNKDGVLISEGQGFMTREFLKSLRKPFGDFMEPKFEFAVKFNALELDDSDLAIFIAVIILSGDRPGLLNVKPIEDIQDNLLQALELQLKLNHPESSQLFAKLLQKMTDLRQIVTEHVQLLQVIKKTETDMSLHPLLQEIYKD
Experimental: as §1, §2, §3

PPARδ [3] = molecular target: T3, PPARδ (Homo sapiens, UniProt Q03181); assay: Fluorescent Polarization (FP) binding assay with corepressor peptides, PPARδ; details: Nb = no binding
T3 construct: purchased Cayman Chemicals
T3 sequence (Q03181 1-441): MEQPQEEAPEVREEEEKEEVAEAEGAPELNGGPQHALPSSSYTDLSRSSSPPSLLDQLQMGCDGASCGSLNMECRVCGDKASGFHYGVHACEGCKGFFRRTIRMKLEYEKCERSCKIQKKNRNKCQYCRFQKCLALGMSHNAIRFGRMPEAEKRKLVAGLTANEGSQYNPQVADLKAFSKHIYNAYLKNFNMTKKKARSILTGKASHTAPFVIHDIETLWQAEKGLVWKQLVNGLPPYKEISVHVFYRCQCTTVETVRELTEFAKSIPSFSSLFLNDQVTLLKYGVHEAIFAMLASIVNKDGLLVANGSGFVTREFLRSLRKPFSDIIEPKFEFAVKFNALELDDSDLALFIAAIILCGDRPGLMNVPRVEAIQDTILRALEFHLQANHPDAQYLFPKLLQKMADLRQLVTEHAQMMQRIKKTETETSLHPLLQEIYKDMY
Experimental: as §1, §2, §3

PPARα [4] = assay: PPAR reporter assay in 293T cells, PPARα (agonist WY14643); type: cell-based; details: 1 μM agonist WY14643
PPARγ [5] = molecular target: T4, PPARγ (Mus musculus, UniProt P37238); assay: PPAR reporter assay in 293T cells, PPARγ (agonist GW7845); type: cell-based; details: for inhibition at 1 µM / inhibition at 10 µM / inhibition at 25 µM / inhibition at 2.5 µM: HEK-293T, 1 μM agonist GW7845, 293T cells, read-out: Reporter assay (% inhibition), γ; for inhibition at 1 µM: 1 μM compound; for inhibition at 10 µM: 10 μM compound; for inhibition at 25 µM: 25 μM compound; for inhibition at 2.5 µM: 2.5 μM compound
T4 construct: expressed in transfected cells; host or cells: 293T cells
T4 sequence (P37238 1-505): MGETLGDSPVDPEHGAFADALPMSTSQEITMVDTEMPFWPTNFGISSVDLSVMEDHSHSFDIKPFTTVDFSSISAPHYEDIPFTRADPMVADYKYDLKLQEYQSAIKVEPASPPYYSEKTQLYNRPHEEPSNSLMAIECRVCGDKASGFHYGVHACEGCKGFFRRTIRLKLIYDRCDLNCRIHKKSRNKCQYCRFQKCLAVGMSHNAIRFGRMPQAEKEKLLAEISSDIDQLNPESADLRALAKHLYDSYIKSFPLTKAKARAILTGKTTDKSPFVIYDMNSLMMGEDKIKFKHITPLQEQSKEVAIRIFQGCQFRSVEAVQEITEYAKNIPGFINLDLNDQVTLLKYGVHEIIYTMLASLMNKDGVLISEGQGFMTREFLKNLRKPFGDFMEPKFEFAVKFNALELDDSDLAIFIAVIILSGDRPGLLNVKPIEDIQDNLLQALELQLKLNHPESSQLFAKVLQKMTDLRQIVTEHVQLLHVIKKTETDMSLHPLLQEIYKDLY

PPARδ [6] = assay: PPAR reporter assay in 293T cells, PPARδ (agonist GW501516); type: cell-based; details: 1 μM agonist GW501516
PPARα, PPARγ, PPARδ = assay: PPAR reporter assays, isotype profile over the three PPARs; details: for PPAR inhibitor type (Table 1): from reporter data; for PPAR isotype selectivity in reporter assays: inhibition of activation by 1 μM agonist

SMILES	Binding assay EC50, α (PPARα [1])	EC50 (PPARγ [2]) [nM]	Binding assay EC50, δ (PPARδ [3])	Reporter assay (% inhibition), α (PPARα [4]; 1 μM compound) [%]	Reporter assay (% inhibition), α (PPARα [4]; 10 μM compound) [%]	Reporter assay (% inhibition), α (PPARα [4]; 25 μM compound) [%]	inhibition at 1 µM (PPARγ [5]) [%]	inhibition at 10 µM (PPARγ [5]) [%]	inhibition at 25 µM (PPARγ [5]) [%]	Reporter assay (% inhibition), δ (PPARδ [6]; 1 μM compound)	Reporter assay (% inhibition), δ (PPARδ [6]; 10 μM compound) [%]	Reporter assay (% inhibition), δ (PPARδ [6]; 25 μM compound) [%]	PPAR inhibitor type (Table 1) (PPARα, PPARγ, PPARδ)	also measured
O=C1NN(c2cccc(F)c2)C(=O)/C1=C\c1ccc(-c2ccc(S(=O)(=O)Nc3ncco3)cc2)o1 [Sd-107-10]	nb	560	δ nb	0	0	20	0	40	85	0%	0	10	PPARγ inhibitor	PPAR isotype selectivity in reporter assays (PPARα, PPARγ, PPARδ): greatest selectivity for PPARγ
COc1ccc(S(=O)(=O)N(C(=O)c2ccc(Cl)cc2)N(C(=O)c2ccc(Cl)cc2)C(=O)c2ccc(Cl)cc2)cc1 [YL-1-38-1]	nb	40800	δ nb	0	15	40	0	50	75	0%	0	47	Pan inhibitor	Effect on FP of corepressor peptide, PPARγ (PPARγ [2]; FIG. 3): weakened the affinity of the peptide to PPARγ; Selectivity of binding in FP assay (PPARγ [2]; titration with all three PPARs): selective binding to PPARγ; Reporter assay (% inhibition), α (PPARα [4]; 2.5 μM compound): 0%; inhibition at 2.5 µM (PPARγ [5]): 16%; Reporter assay (% inhibition), δ (PPARδ [6]; 2.5 μM compound): 0%
CC(C)(C)c1ccc(S(=O)(=O)N(C(=O)c2ccc(Cl)cc2)N(C(=O)c2ccc(Cl)cc2)C(=O)c2ccc(Cl)cc2)cc1 [YL-1-68-1]	α nb γ nb	–	δ nb	0	0	17	0	50	75	0%	0	47	PPARγ/δ inhibitor	Binding assay EC50, γ (PPARγ [2]): α nb γ nb; inhibition at 2.5 µM (PPARγ [5]): 16%; Reporter assay (% inhibition), δ (PPARδ [6]; 2.5 μM compound): 0%
CC(C)(C)c1ccc(S(=O)(=O)N(NC(=O)c2ccc(Cl)cc2)C(=O)c2ccc(Cl)cc2)cc1 [YL-1-68-2]	nb	1400	δ nb	16	23	57	0	23	67	0%	18	46	Pan inhibitor	–
CC(C)(C)c1ccc(C(=O)N(N)S(=O)(=O)c2ccc(C(C)(C)C)cc2)cc1 [YL-1-69]	α nb γ nb	–	δ nb	0	15	20	0	25	50	0%	10	20	Pan inhibitor	Binding assay EC50, γ (PPARγ [2]): α nb γ nb
CC(C)(C)c1ccc(C(=O)N(NC(=O)c2ccc(Cl)cc2)S(=O)(=O)c2ccc(C(C)(C)C)cc2)cc1 [YL-1-80]	nb	9200	δ nb	0	24	53	18	58	79	δ 12%	31	64	Pan inhibitor	Competition in FPA of PPARγ with fluorescent labeled NCoR peptide probe (PPARγ [2]): best competition
O=C(NN(C(=O)c1ccc(Cl)cc1)S(=O)(=O)c1ccc(C(F)(F)F)cc1)c1ccc(Cl)cc1 [YL-1-81]	nb	15200	δ nb	–	–	8	–	–	32	–	–	46	PPARγ/δ inhibitor	–
CC(C)(C)c1ccc(S(=O)(=O)N(NC(=O)c2ccc(Cl)nc2)C(=O)c2ccc(Cl)nc2)cc1 [YL-1-83]	–	110	δ nb	0	0	0	0	0	37	0%	0	0	PPARγ inhibitor	EC50 (PPARα [1]; read-out: Binding assay EC50, α): 1300 nM; Competition in FPA of PPARγ with fluorescent labeled NCoR peptide probe (PPARγ [2]): best competition; PPARγ antagonism (PPARγ [5]; binding and reporter screening): weak PPARγ antagonist; PPAR isotype selectivity in reporter assays (PPARα, PPARγ, PPARδ): more selective for PPARγ
